From patent US5091392A, “Substituted (quinolin-2-yl-methoxy)phenyl-acyl-sulphon-amides and -cyanamides, processes for their preparation and their use in medicaments” (Bayer Aktiengesellschaft, priority 1989, dated 1992) come the findings set out here.

This assay concerns lipoxygenase. Nature of the assay: lipoxygenase inhibition: release of leucotriene B4 (LTB4) from polymorphonuclear rat leucocytes (PMNL) after Ca ionophore, reverse phase HPLC. It counts as cell-based. The conditions noted are these: LTB4 release from polymorphonuclear rats leucocytes (PMNL), read-out: LO inhibition IC50. As for the experimental part: The pharmacological activity data of the substances according to the invention are determined by the following method: As a measure of the lipoxygenase inhibition, the release of leucotriene B4 (LTB4) from polymorphonuclear rats leucocytes (PMNL) was determined after addition of substances and Ca ionophore by means of reverse phase HPLC according to Borgeat, P. et al., Proc. Nat. Acad. Sci., 76, 2148-2152 (1979). The in vivo activity of the compounds was detected using the mouse ear inflammation model according to Young, J. M. et al., J. of Investigative Dermatology, 82, 367-371 (1984).
One may read the IC50 as the concentration needed to halve the response being measured. On to `CS(=O)(=O)NC(=O)C(c1ccc(OCc2ccc3ccccc3n2)cc1)C1CCCC1` (stereo not drawn) [Example 1], for which the half-maximal inhibitory concentration (IC50) amounted to 27 nM.
The same measure for `CN(C(=O)C(c1ccc(OCc2ccc3ccccc3n2)cc1)C1CCCC1)S(=O)(=O)C(F)(F)F` (stereo not drawn) [Example 6, N-Methyl-N-{1-[4-(quinolin-2-yl-methoxy)phenyl]-1-cyclopentyl-acetyl}-trifluoromethanesulphonamide]: 33 nM.
`N#CNC(=O)C(c1ccc(OCc2ccc3ccccc3n2)cc1)C1CCCC1` (stereo not drawn) [Example 7, N-{1-[4-(Quinolin-2-yl-methoxy)phenyl]-1-cyclopentyl}-acetyl-cyanamide]: the IC50 worked out at 24 nM.
